US20160145242A1, “PHENYLIMIDAZOLE DERIVATIVE, AND THERAPEUTIC MEDICINE OR PREVENTIVE MEDICINE FOR INFLAMMATORY DISEASE, ETC” (NIPPON SODA CO., LTD., priority 2013, published 2016)

System: mouse model of retinal light disorders
Experiment: Retinal light disorder model test (ONL thickness)
Format: in vivo
Settings: BALB/cCr male mouse, 30 mg/kg oral 30 minutes before 2 hours white light, eyes taken after 4 days
Experimental: (Retinal Light Disorder Model Test)
The usefulness (improvement rate with respect to retinal light disorders) of the compound of the invention was evaluated using a mouse model of retinal light disorders, generally used as a model of retinal light disorders, (Investigative Ophthalmology & Visual Science, 2002; vol. 43; pp. 1162 to 1167). Here, the improvement rate with respect to the retinal light disorders was calculated based on the thickness of an outer nuclear layer (hereinafter, referred to as “ONL”), which is strongly interfered especially by light application among a retinal cell layers, in a tissue specimen of a perpendicular surface of an eyeball.
Moreover, in the present test, the ONL of a light application group to which only a base was administered was degraded to 30% to 50% of a normal light group.
A test compound was dissolved or suspended in a solvent (1% (w/v) methyl cellulose aqueous solution) and then an administration liquid was prepared so that the test compound to be 30 mg/kg body weight. The dose was set to 10 ml/kg body weight.
A 5-week-old BALB/cCr-based male mouse (weight of approximately 20 g) was bred in a dark place for 48 hours. Subsequently, the test compound administration liquid was orally administered (30 mg/kg). After 30 minutes, […] of white light was continuously applied to the mouse for 2 hours. Next, the mouse was bred in a breeding room with 50 lux of light for 4 days.
An anesthetic (secobarbital sodium) was intraperitoneally administered to anesthetize the mouse and then the mouse was exsanguinated to die. The top portion of the right eyeball was marked with a thread and the eyeball was extracted. […]
The ONL thickness in the tissue specimen was measured for every 200 μm between the optic nerve papilla to where upwardly spaced by 1 mm from the optic nerve papilla using Lumina Vision. The area (AUC) from the optic nerve papilla to where upwardly spaced by 1 mm from the optic papilla in the graph was calculated as an ONL area. […]

## CC(=O)N1CCN(c2ccc([N+](=O)[O-])c(-n3ccnc3)c2)CC1 [2-imidazole-1-yl-4-(acetylpiperazine-1-yl)nitrobenzene, reference compound]
  ONL thickness improvement rate: 29.2%

## CC(=O)NC1CCN(c2ccc(N)c(-n3ccnc3)c2)C1 (centres unmarked) [Compound 3-1, 3-acetylamino-1-(4-amino-3-imidazole-1-yl-phenyl)pyrrolidine]
  ONL thickness improvement rate: 87.2%
